From US20230181541A1, “COMPOSITIONS AND METHODS FOR TREATING OBSESSIVE-COMPULSIVE DISORDER” (Biohaven Therapeutics Ltd., priority 2020, published 2023)
Read-outs that look alike come from different tables or passages of the source.

Tested on: OCD patients with inadequate response to standard of care treatment
Settings: for YBOCS Compulsions Subscale Change from Baseline, LS Mean / YBOCS Compulsions Subscale Change from Baseline, Troriluzole vs Placebo Difference Estimate / YBOCS Obsessions Subscale Change from Baseline, LS Mean / YBOCS Obsessions Subscale Change from Baseline, Troriluzole vs Placebo Difference Estimate / YBOCS Total Change from Baseline, Troriluzole vs Placebo Difference Estimate / YBOCS Total Change from Baseline, LS Mean / YBOCS Total Score Change from Baseline, LS Mean: MITT data set, MMRM; for YBOCS Total Score Change from Baseline, LS Mean: only subjects <= median baseline YBOCS total = 26, not validated
Protocol: In some embodiments of the invention, the individual treated according to the claimed method is assessed using the Yale Brown Obsessive Compulsive Scale (“Y-BOCS”). See Goodman et al., Arch. Gen. Psychiatry, 1989, 46, 1006-1011. According to this system, an individual is scored using a symptom checklist by asking the individual about specific obsessions and compulsions. Such symptoms are broadly categorized as aggressive obsessions, contamination obsessions, sexual obsessions, hoarding/saving obsessions, religious obsessions, obsession with need for symmetry or exactness, miscellaneous obsessions, somatic obsessions, cleaning/washing compulsions, checking compulsions, repeating rituals, counting compulsions, ordering/arranging compulsions, and miscellaneous compulsions. Each of these categories is further divided by subcategory of more specific symptoms. Individuals are scored according to the answers provided. Scores range from 0-7 for subclinical, 8-15 for mild, 16-23 for moderate, 24-31 for severe, and 32-40 for extreme severity.
Subjects receive a dose of 140 mg QD for the first four (4) weeks, and the dose is then increased to 200 mg QD for the duration of the study. Down titration is only allowed to address tolerability issues**. Eligible subjects include those who perceived benefit in earlier phases or for whom the Principal Investigator (PI) believes extended treatment with BHV-4157 would offer an acceptable risk-benefit profile***. Subjects start the Extension phase on the dose that was taken at the end of the Randomization phase. Subjects receiving placebo in the randomization phase are blindly switched to a 140 mg dose QD for the first 4 week, and the dose is then increased to 200 mg QD (at the Week 4 visits). Down titration is only allowed to address tolerability issues. All visits after Week 4 are open-label****.
Subjects who are stable on Standard of Care (SOC) medication and having an inadequate response to SOC are randomized to additionally receive placebo (QD) or troriluzole for 12 weeks (200 mg QD, after four weeks at 140 mg QD). Subjects completing the Randomization Phase are offered approximately 48 weeks of open-label treatment. The study is conducted from December 2017 to June 2020 with 242 subjects randomized at over 56 sites. The full study details are available online at https://clinicaltrials.gov/ct2/show/study/NCT03299166?term=biohaven&cond=Obsessive-Compulsive+Disorder&draw=2&rank=1.
The study involves subjects with a primary diagnosis of OCD as per Diagnostic and Statistical Manual of Mental Disorders, Fifth Edition, as confirmed by the MINI at screening.
Duration of the subject's illness must be equal to or greater than 1 year.
The Clinical Global Impression Score (CGI-S) must be equal to or greater than 4 at screening and baseline.
Subjects are excluded with a history of more than two (2) previous failed treatment trials of SSRIs, clomipramine, venlafaxine, or desvenlafaxine, (not including the current SSRI trial) given for an adequate duration at an adequate dose as defined by the MGH-TRQ-OCD.
Subjects are excluded if they display acute suicidality or suicide attempt or self-injurious behavior in the last 12 months.
Subjects are excluded if they have a Brown Assessment of Beliefs (BABS) score of greater than 17 at screening and baseline.
Use of a stimulant, neuroleptic (antipsychotic), mood stabilizer and glutamate agent (e.g., topiramate, lamotrigine, N-acetylcysteine, ketamine, memantine, sodium valproate) is prohibited within the 4 weeks prior to screening and during the study.
Current daily anxiolytic or benzodiazepine use is prohibited.

[1] = Week 4, only subjects > baseline YBOCS = 26 (median)
[2] = Week 8, only subjects > baseline YBOCS = 26 (median)
[3] = Week 12, only subjects > baseline YBOCS = 26 (median)

Q: Which results are given for `CN(CC(=O)Nc1nc2ccc(OC(F)(F)F)cc2s1)C(=O)CNC(=O)CN` [Troriluzole]?
A: Y-BOCS outcome versus placebo (in words) (200 mg once daily as adjunctive therapy, all study timepoints (weeks 4 to 12)): consistent numerical improvement over placebo; YBOCS Compulsions Subscale Change from Baseline, LS Mean (Week 4): −1.72; YBOCS Compulsions Subscale Change from Baseline, Troriluzole vs Placebo Difference Estimate (Week 4): −0.44; YBOCS Obsessions Subscale Change from Baseline, LS Mean (Week 4): −1.67; YBOCS Obsessions Subscale Change from Baseline, Troriluzole vs Placebo Difference Estimate (Week 4): −0.02; YBOCS Total Change from Baseline, Troriluzole vs Placebo Difference Estimate (Week 4): −0.5; YBOCS Total Change from Baseline, LS Mean (Week 4, 140 mg QD first 4 weeks then 200 mg QD, added to SOC): −3.4 points; YBOCS Total Score Change from Baseline, LS Mean (Week 4): −2.8; YBOCS Total Change from Baseline, LS Mean [1]: −4.1 points; YBOCS Total Change from Baseline, Troriluzole vs Placebo Difference Estimate [1]: −0.6; YBOCS Compulsions Subscale Change from Baseline, LS Mean (Week 8): −2.61; YBOCS Compulsions Subscale Change from Baseline, Troriluzole vs Placebo Difference Estimate (Week 8): −1.20; YBOCS Obsessions Subscale Change from Baseline, LS Mean (Week 8): −2.50; YBOCS Obsessions Subscale Change from Baseline, Troriluzole vs Placebo Difference Estimate (Week 8): −0.36; YBOCS Total Change from Baseline, Troriluzole vs Placebo Difference Estimate (Week 8): −1.5; YBOCS Total Change from Baseline, LS Mean (Week 8, 140 mg QD first 4 weeks then 200 mg QD, added to SOC): −5.1 points; YBOCS Total Score Change from Baseline, LS Mean (Week 8): −4.4; YBOCS Total Change from Baseline, LS Mean [2]: −6.0 points; YBOCS Total Change from Baseline, Troriluzole vs Placebo Difference Estimate [2]: −2.9; YBOCS Compulsions Subscale Change from Baseline, LS Mean (Week 12): −3.01; YBOCS Compulsions Subscale Change from Baseline, Troriluzole vs Placebo Difference Estimate (Week 12): −0.64; YBOCS Obsessions Subscale Change from Baseline, LS Mean (Week 12): −2.91; YBOCS Obsessions Subscale Change from Baseline, Troriluzole vs Placebo Difference Estimate (Week 12): −0.36; YBOCS Total Change from Baseline, Troriluzole vs Placebo Difference Estimate (Week 12): −1.0; YBOCS Total Change from Baseline, LS Mean (Week 12, 140 mg QD first 4 weeks then 200 mg QD, added to SOC): −5.9 points; YBOCS Total Score Change from Baseline, LS Mean (Week 12): −5.0; YBOCS Total Change from Baseline, LS Mean [3]: −7.0 points; YBOCS Total Change from Baseline, Troriluzole vs Placebo Difference Estimate [3]: −2.4; safety profile (in vivo): safe and well tolerated
